{"source": "patent US20260224549A1", "about": "“COMPOUNDS, COMPOSITIONS, AND METHODS FOR TREATING, AMELIORATING, AND/OR PREVENTING PAIN” (priority 2023, published 2026)", "key": {"[1]": {"conditions": "cited from earlier work"}, "[2]": {"test": "Hygroscopicity - Dynamic Vapor Sorption (DVS)", "type": "physicochemical", "procedure": "Hygroscopicity—Dynamic Vapor Sorption (DVS)\nDVS is a gravimetric technique that measures how quickly and how much of a solvent (water) is sorbed by a sample. The relative humidity or vapor concentration surrounding the sample is varied while the change in mass of the sample is measured. […] The mass values at each relative humidity step are used to generate an isotherm. Isotherms are divided in two components: sorption for increasing humidity steps and desorption for decreasing humidity steps. A plot of kinetic data is also used to show the change in mass and humidity as a function of time.\nThe samples were analyzed using a TA Q5000 automated dynamic vapor sorption analyzer. The samples were dried at 60° C. over 180 minutes and then cooled to 25° C. with a dry nitrogen purge. The samples were then subjected to 0 to 90% RH, back to 10% RH at 25° C. in 10% RH steps."}, "[3]": {"test": "Static vapor sorption studies", "type": "physicochemical", "conditions": "for Est. H2O Content (%) / Wt % Change: ambient temperature, 3 weeks, Form A staged", "description": "Static Vapor Sorption Studies\nStatic vapor sorption studies were done in hermetic humidity chambers using saturated salts, or environmental humidity chambers to control the temperature and humidity. Data collected during dynamic vapor sorption studies often are not at thermodynamic equilibrium. To gain a better understanding of the water uptake and the critical humidity level of the API, samples of the starting material (i.e., Form A) were monitored in static humidity chambers to allow the sample to equilibrate with atmospheric moisture.\nIn these studies, water vapor sorption was determined gravimetrically by storing samples in open aluminum dishes. Compound I diphosphate salt lot was used for this study. Samples were stored at 7 different humidity levels at ambient temperature (Table 19). Approximately 50 mg of Form A was staged at each humidity condition. The samples were weighed before placing them in the chamber and then re-weighed after 3 weeks. After re-weighing, the samples were immediately analyzed by XRD to determine whether a change in form had occurred.\nThe sample stored at 11% RH was an outlier and was therefore omitted from the final isotherm plot. The static isotherm plot is roughly consistent with the DVS isotherm plot (FIG. 12F) with a large moisture uptake at around 40% RH and a maximum uptake between 4 and 5 weight percent."}, "[4]": {"test": "Thermal and storage stability of salts and forms", "type": "physicochemical", "conditions": "for stability at ambient conditions: storage", "description": "On the basis of the DSC data, the acetate salt may be a hydrate.\nThe amorphous form may be obtained by crystallization from anhydrous solvents or by thermal desolvation of the hydrate. In certain embodiments, the preferred polymorph of Compound I diphosphate is Compound I diphosphate monohydrate (Form A): […]"}, "[5]": {"test": "Solubility in water of salts", "type": "physicochemical"}, "[6]": {"test": "Phase I single ascending dose pharmacokinetics of metabolite Compound II in plasma", "type": "in vivo, human", "conditions": "for AUC(0-t): po; for Tmax: read-out: Tmax, Median", "excerpt": "The study comprised a single ascending dose (SAD), sequential cohort study, incorporating a food effect (FE) evaluation. Up to 40 subjects were to be studied in 5 cohorts (Cohorts A1 to A5), each cohort consisting of 8 subjects.\nThe actual blood sampling dates and times relative to dosing time were listed by subject and nominal sampling time, with time deviation calculated, for all subjects with available plasma concentration data.\nFor PK concentration data, the number of non-missing values, number of below limit of quantification (BLQ) values, arithmetic mean, standard deviation, median, minimum, maximum, coefficient of variation (CV %), geometric mean and geometric coefficient of variation (geo CV %) values was presented.\nFor PK parameter data, the number of non-missing values, arithmetic mean, standard deviation, median, minimum, and maximum values were presented."}, "[7]": {"test": "Metabolism in liver microsomes and hepatocytes in vitro", "type": "in vitro ADME"}, "[8]": {"conditions": "human, metabolite after 200 mg DS (Fasted), single oral dose, plasma"}, "[9]": {"conditions": "human, metabolite after 400 mg DS (Fasted), single oral dose, plasma"}, "[10]": {"conditions": "metabolite after 60 mg DS (Fasted), single oral dose, plasma"}, "[11]": {"conditions": "metabolite after 120 mg DS (Fasted), single oral dose, plasma"}, "[12]": {"conditions": "metabolite after 200 mg DS (Fasted), single oral dose, plasma"}, "[13]": {"conditions": "metabolite after 400 mg DS (Fasted), single oral dose, plasma"}}, "note": "“Also recorded” adds a separate entry of the source. Read-outs that look alike come from different tables or passages of the source."}
{"compound": "CC1(C)C2CCC1(CS(=O)(=O)O)C(=O)C2", "note": "(centres unmarked) [Camphorsulfonic acid]", "values": [{"measurement": "pKa", "setting": "[1]; first value listed", "value": 2.2}]}
{"compound": "O=C(O)CNC(=O)c1ccccc1", "note": "[Hippuric acid]", "values": [{"measurement": "pKa", "setting": "[1]; first value listed", "value": 3.6}]}
{"compound": "CN(C)C[C@H]1CN(CCc2ccsc2)CC[C@]1(O)c1cccc(C(N)=O)c1", "note": "[Form A]", "values": [{"measurement": "maximum water/moisture uptake", "setting": "[2]; at 90% RH", "value": 4.15, "unit": "wt %"}, {"measurement": "change of solid state form with humidity", "setting": "[3]; XRD after storage at different humidity levels", "value": "did not change at any humidity level; also recorded: retains its structure in both low and high humidity environments"}, {"measurement": "relative humidity of large moisture uptake", "setting": "[3]; static isotherm", "value": "around 40 % RH"}, {"measurement": "heating withstood by the hydrate", "setting": "[4]", "value": "~ 70 °C"}, {"measurement": "stability at ambient conditions", "setting": "[4]", "value": "stable at ambient conditions"}]}
{"compound": "O=S(=O)(O)CCS(=O)(=O)O", "note": "[1,2-Ethanedisulfonic acid]", "values": [{"measurement": "pKa", "setting": "[1]; first value listed", "value": "−2.1"}, {"measurement": "pKa", "setting": "[1]; second value listed", "value": "−1.5"}]}
{"compound": "CCCCCCCCCCCCCCCCCC(=O)O", "note": "[Stearic acid]", "values": [{"measurement": "pKa", "setting": "[1]; first value listed", "value": 4.9}]}
{"compound": "O=S(=O)(O)c1ccc2ccccc2c1", "note": "[Naphthalene-2-sulfonic acid]", "values": [{"measurement": "pKa", "setting": "[1]; first value listed", "value": 0.2}]}
{"compound": "O=S(=O)(O)c1cccc2c(S(=O)(=O)O)cccc12", "note": "[1,5-Naphthalenedisulfonic acid]", "values": [{"measurement": "pKa", "setting": "[1]; first value listed", "value": "−3.4"}, {"measurement": "pKa", "setting": "[1]; second value listed", "value": "−2.6"}]}
{"compound": "CCS(=O)(=O)O", "note": "[Ethanesulfonic acid]", "values": [{"measurement": "pKa", "setting": "[1]; first value listed", "value": "−2.1"}]}
{"compound": "CN(C)C[C@H]1CN(CCc2ccsc2)CC[C@]1(O)c1cccc(C(N)=O)c1", "note": "[Compound I diphosphate, 3-(3S,4R)-3-((dimethylamino)methyl)-4-hydroxy-1-(2-(thiophen-3-yl)ethyl)piperidin-4-yl-benzamide bisphosphate]", "values": [{"measurement": "hygroscopicity", "setting": "[2]; in words", "value": "moderately hygroscopic"}, {"measurement": "Est. H2O Content (%)", "setting": "[3]; 11% relative humidity", "value": 3.1, "unit": "%"}, {"measurement": "Wt % Change", "setting": "[3]; 11% relative humidity", "value": "−0.2", "unit": "Wt %"}, {"measurement": "Est. H2O Content (%)", "setting": "[3]; 22% relative humidity", "value": 0.8, "unit": "%"}, {"measurement": "Wt % Change", "setting": "[3]; 22% relative humidity", "value": "−2.5", "unit": "Wt %"}, {"measurement": "Est. H2O Content (%)", "setting": "[3]; 33% relative humidity", "value": 1.8, "unit": "%"}, {"measurement": "Wt % Change", "setting": "[3]; 33% relative humidity", "value": "−1.5", "unit": "Wt %"}, {"measurement": "Est. H2O Content (%)", "setting": "[3]; 43% relative humidity", "value": 3.9, "unit": "%"}, {"measurement": "Wt % Change", "setting": "[3]; 43% relative humidity", "value": "+0.6 Wt %"}, {"measurement": "Est. H2O Content (%)", "setting": "[3]; 75% relative humidity", "value": 4.1, "unit": "%"}, {"measurement": "Wt % Change", "setting": "[3]; 75% relative humidity", "value": "+0.8 Wt %"}, {"measurement": "Est. H2O Content (%)", "setting": "[3]; 84% relative humidity", "value": 4.4, "unit": "%"}, {"measurement": "Wt % Change", "setting": "[3]; 84% relative humidity", "value": "+1.1 Wt %"}, {"measurement": "Est. H2O Content (%)", "setting": "[3]; 97% relative humidity", "value": 4.8, "unit": "%"}, {"measurement": "Wt % Change", "setting": "[3]; 97% relative humidity", "value": "+1.5 Wt %"}, {"measurement": "aqueous solubility", "setting": "[5]", "value": "high aqueous solubility"}, {"measurement": "solubility in unbuffered water", "setting": "[5]; unbuffered water", "value": "high solubility"}, {"measurement": "stability (thermal, chemical)", "setting": "[4]; in words, listed as diphosphate salt", "value": "more stable; also recorded: improved stability (thermally and chemically) over the other salts"}, {"measurement": "stability at ambient conditions", "setting": "[4]; listed as diphosphate salt", "value": "stable to storage under ambient conditions"}]}
{"compound": "CNC[C@H]1CN(CCc2ccsc2)CC[C@]1(O)c1cccc(C(N)=O)c1", "note": "[Compound II, 3-(3S, 4R)-3-((methylamino)methyl)-4-hydroxy-1-(2-(thiophen-3-yl)ethyl)piperidin-4-yl-benzamide]", "values": [{"measurement": "MRAUC0-t, metabolite ratio (MEB-373/MEB1170 AUC0-t values), Mean", "setting": "[6]; 200 mg DS (Fasted), single oral dose, plasma", "value": 0.0231}, {"measurement": "MRAUC0-t, metabolite ratio (MEB-373/MEB1170 AUC0-t values), Mean", "setting": "[6]; 400 mg DS (Fasted), single oral dose, plasma", "value": 0.0276}, {"measurement": "half-life", "setting": "[6]; human, plasma, oral, 400 mg dose group (n=5), read-out: mean plasma t1/2 (converted)", "value": 0.902, "unit": "h"}, {"measurement": "half-life", "setting": "[6]; human, plasma, oral, one individual at 200 mg, read-out: t1/2 (converted)", "value": 2, "unit": "h"}, {"measurement": "AUC(0-t)", "setting": "[6]; human, plasma, 200 mg, metabolite after 200 mg DS (Fasted), single oral dose, plasma, read-out: AUC0-t (zero to the time of the last quantifiable concentration), Mean", "value": 8.77, "unit": "ng·h/mL"}, {"measurement": "AUC(0-t)", "setting": "[6]; human, plasma, 400 mg, metabolite after 400 mg DS (Fasted), single oral dose, plasma, read-out: AUC0-last (zero to 24 hours postdose), Mean", "value": 27.3, "unit": "ng·h/mL"}, {"measurement": "AUC(0-t)", "setting": "[6]; human, plasma, 400 mg, metabolite after 400 mg DS (Fasted), single oral dose, plasma, read-out: AUC0-t (zero to the time of the last quantifiable concentration), Mean", "value": 21.1, "unit": "ng·h/mL"}, {"measurement": "Cmax", "setting": "[6]; [8]", "value": 7.91, "unit": "ng/mL"}, {"measurement": "Tmax", "setting": "[6]; [8]", "value": 2.26, "unit": "h"}, {"measurement": "Cmax", "setting": "[6]; [9]", "value": 12.2, "unit": "ng/mL"}, {"measurement": "AUC(0-inf)", "setting": "[6]; human, metabolite after 400 mg DS (Fasted), single oral dose, plasma, read-out: AUC0-inf, Mean", "value": 28.7, "unit": "ng·h/mL"}, {"measurement": "Tmax", "setting": "[6]; [9]", "value": 2, "unit": "h"}, {"measurement": "half-life", "setting": "[6]; human, metabolite after 400 mg DS (Fasted), single oral dose, plasma, read-out: t1/2 (terminal plasma half-life), Mean (converted)", "value": 0.902, "unit": "h"}, {"measurement": "systemic exposures relative to Compound I", "setting": "[6]; in vivo", "value": "very low relative to Compound I"}, {"measurement": "Tlast, Max", "setting": "[6]; [10]", "value": 2.50, "unit": "h"}, {"measurement": "Tlast, Min", "setting": "[6]; [10]", "value": 2.50, "unit": "h"}, {"measurement": "Tlast, Max", "setting": "[6]; [11]", "value": 4.00, "unit": "h"}, {"measurement": "Tlast, Min", "setting": "[6]; [11]", "value": 2.50, "unit": "h"}, {"measurement": "Tmax, Max", "setting": "[6]; [11]", "value": 2.50, "unit": "h"}, {"measurement": "Tmax, Min", "setting": "[6]; [11]", "value": 2.50, "unit": "h"}, {"measurement": "Tlast (time of last measurable concentration), Median", "setting": "[6]; [12]", "value": 3.25, "unit": "h"}, {"measurement": "Tlast, Max", "setting": "[6]; [12]", "value": 4.00, "unit": "h"}, {"measurement": "Tlast, Min", "setting": "[6]; [12]", "value": 2.50, "unit": "h"}, {"measurement": "Tmax, Max", "setting": "[6]; [12]", "value": 2.50, "unit": "h"}, {"measurement": "Tmax, Min", "setting": "[6]; [12]", "value": 1.00, "unit": "h"}, {"measurement": "Tlast (time of last measurable concentration), Median", "setting": "[6]; [13]", "value": 4.00, "unit": "h"}, {"measurement": "Tlast, Max", "setting": "[6]; [13]", "value": 4.00, "unit": "h"}, {"measurement": "Tlast, Min", "setting": "[6]; [13]", "value": 2.50, "unit": "h"}, {"measurement": "Tmax, Max", "setting": "[6]; [13]", "value": 2.50, "unit": "h"}, {"measurement": "Tmax, Min", "setting": "[6]; [13]", "value": 1.50, "unit": "h"}, {"measurement": "plasma concentrations", "setting": "[6]; most subjects at doses of 20, 60, and 120 (fed) mg", "value": "below the limit of assay quantitation"}, {"measurement": "metabolite formation in vitro", "setting": "[7]", "value": "predominant metabolite of Compound I"}]}
